Reference: patent US20160361365A1, “TREATMENT OF CNS DISEASE WITH ENCAPSULATED INDUCIBLE CHOROID PLEXUS CELLS” (Living Cell Technologies New Zealand Limited, priority 2015, published 2016)
Counter-ions that a name gives are not always drawn.

Legend:
Assay type in all cases: cell-based, porcine
[1] = tested on: Choroid plexus (CP) cell clusters; assay: Total antioxidant capacity (TAC) of culture supernatants of CP cell clusters exposed to candidate CP inducing agents (OxiSelect TAC assay); details: non-encapsulated CP clusters, 72 hours; FIG. 2
Experimental: Choroid plexus (CP) cell clusters comprising CP cells (5×10^3 clusters/mL) were prepared as described above in Example 1 but without encapsulation and cultured at 37° C. in a 5% CO2 incubator for 24 or 72 hours in vitro in 24-well ultra-low (cell) attachment plates, and culture supernatants were tested for total antioxidant capacity (TAC) using the OxiSelect™ TAC assay (Cat. No. STA-360, Cell Biolabs, Inc., San Diego, Calif.) according to the manufacturer's instructions. To avoid interference in the TAC assay from medium components, cultures were incubated in serum-free, phenol-free RPMI media supplemented with 10 mM nicotinamide. A panel of candidate CP inducing agents was also tested for effects on TAC elaboration by CP cells. Control wells that received the culture medium alone or with each candidate CP inducing agent, but no CP cell clusters, were also incubated and tested for TAC.

encapsulated CP = assay: VEGF secretion by encapsulated CP cultured with or without inducers; details: 1000 CP-containing capsules, 24 hours at 37° C.; FIG. 3B
Experimental: To determine that certain inducers can increase the secretion of CSF components by CPs that have been encapsulated, 1000 CP-containing capsules were cultured in 24-well multi-well plate with or without various inducers including LiCl at 37° C. for 24 hours. Aliquots of supernatant fluids were collected and assayed for VEGF as described in EXAMPLE 1. Aliquots of the cell cultures were also collected for DNA quantification to determine the relative number of cells in each well as described in EXAMPLE 1.

[2] = tested on: CP clusters containing CP cells; assay: RNA-Seq of CP clusters for genes encoding CSF components after exposure to inducing agent; details: 12 mM LiCl, 72 hours, vs controls; FIG. 8
Experimental: In a further experiment to identify genes for which the expression levels were altered in CP cells following contact with an inducing agent as provided herein, CP clusters (5×10^3 clusters/mL) containing CP cells, obtained from 12-13 day-old piglets and cultured in vitro for 20-22 days, were incubated for 72 hours in serum-free, phenol-free RPMI medium containing 10 mM nicotinamide in the absence (controls) or presence (inducing agent-treated) of 12 mM LiCl. Cell pellets were harvested and 0.25 ml of TRI™ Reagent (Catalog # T9424, Sigma-Aldrich Corporation, St. Louis, Mo.) was added to lyse the cells. The lysate was pipetted up and down approximately 10 times and stored at −80° C. until RNA-Seq analysis. […] Corresponding human genes encoding human CSF components were identified by established orthology analysis (Groenen et al., 2012 Nature 491(7424):393-8).

| Structure (SMILES) | release of total antioxidant capacity (TAC) by CP cells [1] | VEGF secretion by encapsulated CP versus culture without inducers (encapsulated CP) | expression levels of porcine genes encoding known CSF components [2] |
| --- | --- | --- | --- |
| [Cl-].[Li+] [LiCl, lithium chloride] | promoted the release by CP cells of elevated TAC levels | induced VEGF secretion by encapsulated CP above the level secreted by encapsulated CPs cultured without inducers | expression levels increased (FIG. 8A-E) or decreased (FIG. 8F-K) |
| COC1=C(OC)C(=O)C(CCCCCCCCCC[P+](c2ccccc2)(c2ccccc2)c2ccccc2)=C(C)C1=O [MitoQ, 10-(6′-ubiquinoyl) decyltriphenylphosphonium salt] | – | induced VEGF secretion by encapsulated CPs | – |
| O=C([O-])[O-].[Li+].[Li+] [lithium carbonate] | – | induced VEGF secretion by encapsulated CP above the level secreted by encapsulated CPs cultured without inducers | – |
| NCCS(=O)(=O)O [taurine, 2-aminoethanesulfonic acid] | – | induced VEGF secretion by encapsulated CPs | – |
